Data published in ChEMBL document CHEMBL2034982, “Synthesis of new 2-galactosylthiazolidine-4-carboxylic acid amides. Antitumor evaluation against melanoma and breast cancer cells” (Eur J Med Chem, 2012).
Active and inactive are the calls of the source. No cut-off for these calls is given here.

Columns and labels:
[1] = system: MCF7; test: Selectivity index, ratio of IC50 for human HFF1 cells to IC50 for human MCF7 cells; assay type: functional
[2] = system: A-375; test: Selectivity index, ratio of IC50 for human HFF1 cells to IC50 for human A375 cells; assay type: functional
[3] = system: A-375; test: Cytotoxicity against human A375 cells after 48 hrs by MTT assay; assay type: functional, cell-based; details: for IC50: A-375, 48 h
[4] = Cytotoxicity against human HFF1 cells after 48 hrs by MTT assay; assay type: cell-based; details: HFF-1, 48 h
[5] = system: MCF7; test: Cytotoxicity against human MCF7 cells after 48 hrs by MTT assay; assay type: functional, cell-based; details: for IC50: MCF7, 48 h
[6] = system: A-375; test: Cell cycle arrest in human A375 cells assessed as accumulation at G2 phase at 30 uM after 48 hrs using propidium iodide staining by FACS flow cytometry (reference value: 10.6 +/- 1.2%); assay type: functional
[7] = system: A-375; test: Cytotoxicity against human A375 cells assessed as increase in necrotic cells at 17 to 30 uM after 48 hrs by annexin V/propidium iodide staining based FACS flow cytometry; assay type: functional, cell-based
[8] = system: A-375; test: Cell cycle arrest in human A375 cells assessed as accumulation at sub G1 phase at 17 uM after 48 hrs using propidium iodide staining by FACS flow cytometry; assay type: functional
[9] = system: HCC1806; test: Cytotoxicity against human HCC1806 cells after 48 hrs by MTT assay; assay type: functional, cell-based; details: HCC1806, 48 h
[10] = system: A-375; test: Cell cycle arrest in human A375 cells assessed as accumulation at S phase at 17 uM after 48 hrs using propidium iodide staining by FACS flow cytometry (reference value: 23.0 +/- 3.3%); assay type: functional
[11] = system: A-375; test: Cell cycle arrest in human A375 cells assessed as accumulation at sub G1 phase at 30 uM after 48 hrs using propidium iodide staining by FACS flow cytometry; assay type: functional
[12] = system: A-375; test: Cytotoxicity against human A375 cells assessed as decrease in viable cells at 17 to 30 uM after 48 hrs by annexin V/propidium iodide staining based FACS flow cytometry; assay type: functional, cell-based
[13] = system: A-375; test: Cytotoxicity against human A375 cells assessed as increase in late apoptotic cells at 17 to 30 uM after 48 hrs by annexin V/propidium iodide staining based FACS flow cytometry; assay type: functional, cell-based
[14] = system: A-375; test: Cytotoxicity against human A375 cells assessed as increase in apoptotic cells at 17 to 30 uM after 48 hrs by annexin V/propidium iodide staining based FACS flow cytometry; assay type: functional, cell-based
[15] = system: A-375; test: Cell cycle arrest in human A375 cells assessed as accumulation at G2 phase at 17 uM after 48 hrs using propidium iodide staining by FACS flow cytometry (reference value: 10.6 +/- 1.2%); assay type: functional
[16] = system: A-375; test: Cell cycle arrest in human A375 cells assessed as accumulation at G1 phase at 30 uM after 48 hrs using propidium iodide staining by FACS flow cytometry (reference value: 66.4 +/- 4.1%); assay type: functional
[17] = system: A-375; test: Cytotoxicity against human A375 cells after 48 hrs by annexin V/propidium iodide staining based FACS flow cytometry; assay type: functional, cell-based
[18] = system: A-375; test: Induction of apoptosis in human A375 cells assessed as increase in ratio of Bax/Bcl2 at 30 uM after 48 hrs by fluorescence assay relative to control; assay type: functional, cell-based
[19] = system: A-375; test: Cell cycle arrest in human A375 cells assessed as accumulation at S phase at 30 uM after 48 hrs using propidium iodide staining by FACS flow cytometry (reference value: 23.0 +/- 3.3%); assay type: functional
[20] = system: A-375; test: Induction of apoptosis in human A375 cells after 48 hrs using propidium iodide staining by FACS flow cytometry; assay type: functional, cell-based
[21] = system: A-375; test: Induction of apoptosis in human A375 cells assessed as increase in ratio of Bax/Bcl2 at 17 uM after 48 hrs by fluorescence assay relative to control; assay type: functional
[22] = system: A-375; test: Cell cycle arrest in human A375 cells assessed as accumulation at G1 phase at 17 uM after 48 hrs using propidium iodide staining by FACS flow cytometry (reference value: 66.4 +/- 4.1%); assay type: functional

| Compound | Ratio IC50 [1] | Ratio IC50 [2] | Activity [3] | IC50 [3] [µM] | IC50 [4] [µM] | Activity [5] | IC50 [5] [µM] | IC50 [9] [µM] | other results |
| --- | --- | --- | --- | --- | --- | --- | --- | --- | --- |
| CCCCCCCCCCCCCCNC(=O)C1CSC([C@H](O)[C@@H](OC(C)=O)[C@@H](OC(C)=O)[C@@H](COC(C)=O)OC(C)=O)N1C(C)=O (mixture of isomers) | 2.2 | 1 | Dose-dependent effect | 19.6 | 19.6 | Dose-dependent effect | 8.4 |  |  |
| CCCCCCCCCCCCNC(=O)C1CSC([C@H](O)[C@@H](OC(C)=O)[C@@H](OC(C)=O)[C@@H](COC(C)=O)OC(C)=O)N1C(C)=O (mixture of isomers) | 0.91 | 0.22 | Dose-dependent effect | 23.1 | 2.9 | Dose-dependent effect | 7.5 |  |  |
| CCCCCCCCCCCCCCCCNC(=O)C1CSC([C@H](O)[C@@H](OC(C)=O)[C@@H](OC(C)=O)[C@@H](COC(C)=O)OC(C)=O)N1C(C)=O (mixture of isomers) | 5.8 | 1.8 | Dose-dependent effect | 17 | 29.8 | Dose-dependent effect | 5.8 | 12.6 | Activity [6]: 10.2%; Activity [7]: Active; Activity [8]: 5.6%; Activity [10]: 23.6%; Activity [11]: 16.6%; Activity [12]: Active; Activity [13]: Active; Activity [14]: Active; Activity [15]: 16%; Activity [16]: 43.6%; Activity [17]: Dose-dependent effect; Activity [18]: Active; Activity [19]: 46%; Activity [20]: Dose-dependent effect; Ratio [21]: 2; Activity [22]: 60.6% |
| CC(=O)O[C@@]12CO[C@@H]1C[C@H](O)[C@@]1(C)C(=O)[C@H](O)C3=C(C)[C@@H](OC(=O)[C@H](O)[C@@H](NC(=O)OC(C)(C)C)c4ccccc4)C[C@@](O)([C@@H](OC(=O)c4ccccc4)[C@H]21)C3(C)C [DOCETAXEL] |  |  |  |  |  |  | 11.9 | 8.4 |  |
| CN(C)/N=N/c1[nH]cnc1C(N)=O [DACARBAZINE] |  |  |  | > 500 |  |  |  |  |  |
| CCCCCCCCCCCCCCCCCCNC(=O)C1CSC([C@H](O)[C@@H](OC(C)=O)[C@@H](OC(C)=O)[C@@H](COC(C)=O)OC(C)=O)N1C(C)=O (mixture of isomers) | 3 | 1.1 | Dose-dependent effect | 20.5 | 27.2 | Dose-dependent effect | 7.7 |  |  |
